Data reported in patent publication US20040208782A1, “Composition and process for chemical and thermal disinfection” (priority 2003, published 2004).
Values joined by “and” are separate entries in the source; they are usually repeats but may differ in a detail not shown here. Equal entries are not always repeated.

Experiments:
Solubility in water = format: physicochemical
[1] = test system: bacteria, fungi and mycobacteria; experiment: Quantitative suspension test, overall spectrum of activity (result statements); format: cell-based; conditions: 0.1% by weight
[2] = test system: Mycobacterium terrae (ATCC15755); experiment: Mycobacterium terrae quantitative suspension test (Test 2), reduction factors; format: cell-based; conditions: for activity for Mycobacterium terrae (in words): 0.1% by weight; for reduction factor: Example 4, 0.1% by weight
[3] = Stoppered cylinder foam test (Test 3); format: physicochemical; conditions: 0.1% by weight aqueous solution, room temperature
Method: The test is used for qualitative assessment of the foaming behaviour of solutions.
The solution to be tested is introduced, avoiding foaming as far as possible, up to the 30 ml mark in a 100 ml measuring cylinder (graduated). It is advisable to hold the cylinder at an angle and allow the solution to run slowly down the wall of the mixing cylinder. The stopper is then inserted.
If foam has nevertheless formed when introducing the solution, the test is not carried out until the foam has completely disappeared. The stoppered cylinder is shaken vigorously 10×, and the stopclock is started. The total volume of solution and foam is then read off in ml after previously specified times.
Test 3 at Room Temperature

Structure (SMILES) | solubility in water (Solubility in water) | antimicrobial activity (in words) ([1]; 50° C., gram-positive and gram-negative bacteria, yeasts and mycobacteria) | antimicrobial activity (in words) ([1]; low temperature) | activity for Mycobacterium terrae (in words) ([2]; 50° C.) | activity for Mycobacterium terrae (in words) ([2]; room temperature, only at 60 minutes in 30% by weight ethanol solution) | activity (in words) ([2]; 0.1% strength or 0.05% strength aqueous solution, elevated temperature (e.g. 60° C.)) | reduction factor ([2]; 50° C., action for 15′) | reduction factor ([2]; 50° C., action for 30′) | reduction factor ([2]; 50° C., action for 60′) | activity on Mycobacterium terrae (in words) ([2]; above room temperature, alkaline range) | foaming behaviour (in words) [3]
CCCCC(CC)COCC(O)CO (stereo not shown) [SC 50, 1-(2-Ethylhexyl)glycerol ether] | 0.18 % by weight | broad activity | virtually no antimicrobial activity | active | good activity | excellent activity | 4.80 | 4.66 | 5.52 | excellent activity | virtually no foam
CCCCCCCCOCC(O)CO (stereo not shown) [1-(n-octyl)glycerol ether] | < 0.2 % by weight and > 0.1 % by weight | – | – | – | – | – | – | – | – | – | pronounced foaming
